Results reported in patent US5773236A, “Assay for glutathiane transferase using polyhaloaryl-substituted reporter molecules” (Molecule Probes, Inc., priority 1997, dated 1998).
“Also recorded” adds a separate entry of the source.

Assays:
[1] = cited from earlier work
NIH-3T3 cells = assay: Hydrolysis of esterase substrates and product retention in live cells, flow cytometry (Example 65); assay type: cell-based
Description: NIH-3T3 cells obtained from American Type Culture Collection Co., Rockville, Md. are used. They are grown in a humidified atmosphere of 5% CO2 in D-MEM supplemented with 10% bovine calf serum (BCS), 50 μg/mL gentamycin, 300 μg/mL L-glutamine and 10 mM HEPES, pH 7.4. Stock solutions of Compound 4 (Example 3), 10 mM in DMSO, and Compound 48 (Example 50), 5 mM in DMSO, are prepared. NIH-3T3 cells are trypsinized, washed with phosphate-buffered saline (PBS), pH 7.2 and resuspended in D-MEM with 10% BCS. To 1 mL of the cell suspension is added the dye stock solution to obtain a final dye concentration of 0.1 mM. Incubation is carried out at 37° C. for 30 minutes followed by incubation on ice for 30 minutes. Cells are centrifuged to form a pellet, the supernatant is discarded and the cells are washed twice with PBS, pH 7.2 and suspended in the same buffer. Cells are analyzed by flow cytometry using the Becton-Dickinson FACS Vantage flow cytometer. After analysis on the flow cytometer, cells are placed at 37° C. and analyzed by flow cytometry at frequent intervals over a period of 75 minutes. Cells stained with either of the dyes are at least 20-fold brighter than the autofluorescent control cells. Approximately 45% of Compound 4 and 35% of Compound 48 are still retained by the cells after 75 minutes of incubation at 37° C.

3T3 or BPAE cells [2] = assay: Intracellular products of tracers by TLC and HPLC (Example 67); assay type: cell-based; details: 5 μM, 1 hr, 37° C.
Description: Reaction mixtures with and without GST using Compound 1 as the substrate, are prepared as described in Example 48. The solutions are mixed overnight with three volumes of ethyl acetate followed by centrifugation at 15,000×g for 30 min to separate the organic and aqueous layers. HPLC analysis using a Rainin HPLC equipped with a C18, 5 μm, 100 Å, 4.6×250 mm MICROSORB-MV reverse phase column. Products are separated in 30 min with a gradient of 5% to 95% solvent B in Solvent A at a flow rate of 1 mL/min, where solvent A is 0.1M triethylammonium acetate, pH 7.0, and solvent B is acetonitrile (see FIG. 1). Products are detected by reading the absorbance at 500 nm. Peaks are identified and, if desired, quantitated by comparing retention times with authentic samples of the glutathione adduct of Compound 45 (Example 45).
(§1) Cultures of either 3T3 or BPAE cells are treated with 5 μM solutions of either Compound 4,5-(pentachlorobenzoylamino)fluorescein diacetate, 5-pentafluorobenzenesulfonylamino)fluorescein diacetate, or 5-chloromethylfluorescein diacetate (CMFDA, Molecular Probes, Inc.) for 1 hr at 37° C. The cells are spun, resuspended in distilled water and lysed by repeated freezing and thawing. 20 μL of the cell lysate supernatant is diluted with 30 μL of SDS-PAGE sample buffer, containing β-mercaptoethanol. The cell pellets are dispersed in 50 μL of water. 20 μL of each sample is added to 30 μL of the same sample buffer. The samples are heated at 95° C. for 5 min. and loaded on 4-20% polyacrylamide gradient minigels. At the completion of the run the gels are observed with UV excitation.
Alternatively, the above samples are analyzed by TLC and by HPLC, as described in Examples 48 and 52. […] Coinjection with authentic Compound 1 confirms the identity of the substrate peak and coinjection with the authentic Compound 1-GSH adduct (Example 45) confirms the identify of the other fluorescent product.

3T3 or BPAE cells [3] = assay: Intracellular products of tracers by gel electrophoresis (Example 67); assay type: cell-based; details: 5 μM, 1 hr, 37° C.
Description: as §1

β-galactosidase = assay: Reactivity with thiol groups of proteins (Example 51); assay type: biochemical
Description: To test the specificity of the Compound 1 reaction with GSH versus thiol-containing proteins, β-galactosidase (a protein that has several free thiols) is dissolved at 5 mg/mL in deoxygenated 0.1M phosphate, 0.1M NaCl, pH 7.5, and reacted under anaerobic conditions with 5-(pentafluorobenzoylamino)fluorescein diacetate (Compound 4, Example 3) or Compound 1 dissolved at 10 mg/mL in DMSO at a molar ratio of the reagent to protein of 15. This assay is performed both in the presence and absence of 30 mM N-ethyl maleimide (NEM) as an effective thiol-blocking reagent. The reactions are incubated at room temperature for 1 hour, stopped by the addition of hydroxylamine, pH 9 to a final concentration of 0.15M, and incubated for 2 more hours to hydrolyze the acetate groups. […] Consequently, no reaction of either Compound 4 or Compound 1 with β-galactosidase is detected under the described conditions.

[4] = test system: Bovine pulmonary aorta endothelial cells (BPAEC); assay: Retention of fluorescence in fixed cells (Example 66); assay type: cell-based; details: 3.7% formaldehyde 30 minutes, 0.2% Triton X-100 30 minutes
[5] = test system: Bovine pulmonary aorta endothelial cells (BPAEC); assay: Glutathione adduct formation and fate of substrate in cultured animal cells, HPLC (Example 66); assay type: cell-based
Description: The solutions are mixed overnight with three volumes of ethyl acetate followed by centrifugation at 15,000×g for 30 min to separate the organic and aqueous layers. HPLC analysis using a Rainin HPLC equipped with a C18, 5 μm, 100 Å, 4.6×250 mm MICROSORB-MV reverse phase column. […] Products are detected by reading the absorbance at 500 nm.
Bovine pulmonary aorta endothelial cells (BPAEC) are removed from flasks by trypsinization and washed into fresh complete growth medium to yield 10^6 cells/mL. […] Other aliquots of the cell suspension are loaded with the same substrates for 1 hour, rinsed into fresh complete medium, then incubated in the absence of substrate for an additional 3 hr at 37° C. to look for retention and efflux of fluorescent products. At the end of each incubation period the cells are removed by centrifugation and the supernate is retained. The cell pellets are resuspended in 1 mL of E-Pure water and subjected to three freeze-thaw cycles (-80° C. to 37° C.).

[6] = 15 min, 5 μM substrate, continuous
[7] = 1 hr, washed, then additional 3 hr at 37° C.
[8] = 4 hrs, 5 μM substrate, continuous

## O=[N+]([O-])c1ccc(Cl)c([N+](=O)[O-])c1 [1-Chloro-2,4-dinitrobenzene]
[1]
  reaction with GSH in the presence of GST enzymes: react specifically with GSH in the presence of GST enzymes

## CC(=O)Oc1ccc2c(c1)Oc1cc(OC(C)=O)ccc1C21OC(=O)c2cc(NC(=O)c3c(F)c(F)c(F)c(F)c3F)ccc21 [Compound 4, 5-(pentafluorobenzoylamino)fluorescein diacetate]
NIH-3T3 cells; 0.1 mM dye, 37° C., 30 minutes then on ice 30 minutes
  brightness versus autofluorescent control cells: at least 20 fold
NIH-3T3 cells; after 75 minutes of incubation at 37° C.
  dye retained by the cells: Approximately 45%
3T3 or BPAE cells [2]; HPLC
  products by HPLC: two peaks
3T3 or BPAE cells [2]; TLC
  products by TLC: formation of a GSH adduct
3T3 or BPAE cells [3]
  fluorescent bands on gel (region of the tracking dye): Two closely spaced green fluorescent bands
  protein adduct bands on gel: No other band corresponding to proteins is visible
β-galactosidase; molar ratio of reagent to protein 15
  fluorescent proteins formed, gel electrophoresis: no fluorescent proteins are formed
β-galactosidase; molar ratio of reagent to protein 15, pH 7.5, 1 hour, with and without 30 mM NEM
  reaction with β-galactosidase, TLC: no reaction
[4]
  fluorescence after fixation and permeabilization: appreciably fluorescent
[5]; 5 μM substrate, 37° C., HPLC
  GSH adduct formation in cells: hydrolyzed and conjugated to glutathione; also recorded: gives rise to glutathione (GSH) adducts
[5]; [6]
  EXTRACELLULAR Free dye: 3350 relative fluorescence units
  EXTRACELLULAR Free dye, fraction of total fluorescence: 89.2%
  EXTRACELLULAR GSH adduct: 97 relative fluorescence units
  EXTRACELLULAR GSH adduct, fraction of total fluorescence: 2.6%
  INTRACELLULAR Free dye: 237 relative fluorescence units
  INTRACELLULAR Free dye, fraction of total fluorescence: 6.3%
  INTRACELLULAR GSH adduct: 72 relative fluorescence units
  INTRACELLULAR GSH adduct, fraction of total fluorescence: 1.9%
[5]; [7]
  EXTRACELLULAR Free dye: 361 relative fluorescence units
  EXTRACELLULAR Free dye, fraction of total fluorescence: 85.3%
  EXTRACELLULAR GSH adduct: 62 relative fluorescence units
  EXTRACELLULAR GSH adduct, fraction of total fluorescence: 14.7%
  INTRACELLULAR Free dye: < 1 relative fluorescence units
  INTRACELLULAR Free dye, fraction of total fluorescence: < 0.2%
  INTRACELLULAR GSH adduct: < 1 relative fluorescence units
  INTRACELLULAR GSH adduct, fraction of total fluorescence: < 0.2%
[5]; [8]
  EXTRACELLULAR Free dye: 4498 relative fluorescence units
  EXTRACELLULAR Free dye, fraction of total fluorescence: 86.8%
  EXTRACELLULAR GSH adduct: 642 relative fluorescence units
  EXTRACELLULAR GSH adduct, fraction of total fluorescence: 12.4%
  INTRACELLULAR Free dye: 23 relative fluorescence units
  INTRACELLULAR Free dye, fraction of total fluorescence: 0.4%
  INTRACELLULAR GSH adduct: 21 relative fluorescence units
  INTRACELLULAR GSH adduct, fraction of total fluorescence: 0.4%

## O=S1(=O)OC(c2cc(Br)c(O)c(Br)c2)(c2cc(Br)c(O)c(Br)c2)c2ccccc21 [tetrabromophenolsulfonephthalein]
[1]
  reaction with GSH in the presence of GST enzymes: react specifically with GSH in the presence of GST enzymes
